Key:
[1] = Metabolic stability in cynomolgus monkey liver microsomes assessed as half life; assay type: ADME, Macaca fascicularis, Microsome
[2] = Metabolic stability in dog liver microsomes assessed as half life; assay type: ADME, Canis lupus familiaris, Microsome
[3] = Metabolic stability in human liver microsomes assessed as half life; assay type: ADME, Microsome
[4] = Permeability of the compound across apical side to basolateral side in human Caco2 cells; assay type: ADME, cell-based; conditions: Caco-2, read-out: permeability
[5] = Permeability of the compound across basolateral side to apical side in human Caco2 cells; assay type: ADME, cell-based; conditions: Caco-2, read-out: permeability
[6] = Metabolic stability in rat liver microsomes assessed as half life; assay type: ADME, Microsome
Coagulation factor VII = target: T1, Coagulation factor VII (Homo sapiens, UniProt P08709); experiment: Inhibition of activated human coagulation factor VII using H-(D)-Ile-Pro-Arg-pNA as substrate by spectrophotometry
T1 sequence (P08709 whole entry): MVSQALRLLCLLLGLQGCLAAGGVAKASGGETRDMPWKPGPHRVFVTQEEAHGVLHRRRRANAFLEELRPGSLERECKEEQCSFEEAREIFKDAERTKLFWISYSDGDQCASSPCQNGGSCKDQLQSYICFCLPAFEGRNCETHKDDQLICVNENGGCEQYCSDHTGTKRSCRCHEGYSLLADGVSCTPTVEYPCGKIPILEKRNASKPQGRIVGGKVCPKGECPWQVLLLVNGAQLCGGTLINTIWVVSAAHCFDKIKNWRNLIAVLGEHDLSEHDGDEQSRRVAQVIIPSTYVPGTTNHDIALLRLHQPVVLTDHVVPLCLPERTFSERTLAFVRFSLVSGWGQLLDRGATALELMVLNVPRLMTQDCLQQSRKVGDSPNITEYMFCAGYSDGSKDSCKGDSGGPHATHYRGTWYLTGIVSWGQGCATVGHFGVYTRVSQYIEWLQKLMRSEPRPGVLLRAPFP

Coagulation factor IX = Coagulation factor IX (Homo sapiens, UniProt P00740); experiment: Inhibition of activated human coagulation factor IX using 7-amino-4-methylcoumarin as substrate by spectrofluorimetry
Coagulation factor X = Coagulation factor X (Homo sapiens, UniProt P00742); experiment: Inhibition of activated human coagulation factor X using N-benzoyl-Ile-Glu-OH-OMe-Gly-Arg-pNA as substrate by spectrophotometry
Coagulation factor XII = target: T2, Coagulation factor XII (Homo sapiens, UniProt P00748); experiment: Inhibition of activated human coagulation factor XII using H-(D)-CHT-Gly-Arg-pNA as substrate by spectrophotometry
T2 sequence (P00748 whole entry): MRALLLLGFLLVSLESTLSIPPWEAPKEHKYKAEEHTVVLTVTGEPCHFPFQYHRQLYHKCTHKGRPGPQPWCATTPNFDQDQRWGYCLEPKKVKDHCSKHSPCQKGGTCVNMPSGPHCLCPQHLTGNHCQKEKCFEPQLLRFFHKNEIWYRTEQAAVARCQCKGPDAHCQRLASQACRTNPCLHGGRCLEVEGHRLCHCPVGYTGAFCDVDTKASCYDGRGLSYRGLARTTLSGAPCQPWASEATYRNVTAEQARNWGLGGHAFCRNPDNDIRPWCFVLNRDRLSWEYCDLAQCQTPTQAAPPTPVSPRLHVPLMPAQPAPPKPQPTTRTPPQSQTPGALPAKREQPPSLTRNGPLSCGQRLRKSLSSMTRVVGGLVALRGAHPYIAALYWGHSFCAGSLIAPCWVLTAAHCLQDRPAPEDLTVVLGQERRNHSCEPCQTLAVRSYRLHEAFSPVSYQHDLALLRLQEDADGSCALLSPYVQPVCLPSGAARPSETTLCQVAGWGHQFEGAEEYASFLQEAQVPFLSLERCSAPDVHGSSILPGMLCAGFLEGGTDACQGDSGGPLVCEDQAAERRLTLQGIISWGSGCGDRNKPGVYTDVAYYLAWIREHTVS

Prothrombin = Prothrombin (Homo sapiens, UniProt P00734); experiment: Inhibition of human alpha-thrombin using pyro-Glu-Pro-Arg-pNA as substrate by spectrophotometry
Trypsin = Trypsin (Homo sapiens, UniProt P07477+P07478+P35030); experiment: Inhibition of human trypsin using N-benzoyl-Ile-Glu-OH-OMe-Gly-Arg-pNA as substrate by spectrophotometry; assay type: protein assay
Plasma kallikrein = Plasma kallikrein (Homo sapiens, UniProt P03952); experiment: Inhibition of human kallikrein using H-(D)-Pro-Phe-Arg-pNA as substrate by spectrophotometry
[7] = target: Vitamin K-dependent protein C (Homo sapiens, UniProt P04070); experiment: Inhibition of activated human protein C using pyro-Glu-Pro-Arg-pNA as substrate by spectrophotometry
Plasminogen = Plasminogen (Homo sapiens, UniProt P00747); experiment: Inhibition of human plasmin using H-(D)-Val-Leu-Lys-pNA as substrate by spectrophotometry
[8] = target: Urokinase-type plasminogen activator (Homo sapiens, UniProt P00749); experiment: Inhibition of activated human urokinase using pyro-Glu-Gly-Arg-pNA as substrate by spectrophotometry

Sequence of Plasma kallikrein (P03952 20-390 limits assumed): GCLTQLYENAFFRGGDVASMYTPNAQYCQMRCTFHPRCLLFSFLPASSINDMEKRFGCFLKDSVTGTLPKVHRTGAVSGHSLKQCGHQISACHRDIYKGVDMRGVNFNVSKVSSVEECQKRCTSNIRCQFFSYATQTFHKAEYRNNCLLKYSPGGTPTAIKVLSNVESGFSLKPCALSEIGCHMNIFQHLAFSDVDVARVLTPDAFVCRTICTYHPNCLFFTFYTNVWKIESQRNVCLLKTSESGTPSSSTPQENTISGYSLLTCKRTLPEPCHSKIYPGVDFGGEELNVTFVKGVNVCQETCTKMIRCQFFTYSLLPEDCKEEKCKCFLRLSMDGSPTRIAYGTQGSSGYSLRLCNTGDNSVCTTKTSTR
Sequence of Plasma kallikrein (P03952 391-638 limits assumed): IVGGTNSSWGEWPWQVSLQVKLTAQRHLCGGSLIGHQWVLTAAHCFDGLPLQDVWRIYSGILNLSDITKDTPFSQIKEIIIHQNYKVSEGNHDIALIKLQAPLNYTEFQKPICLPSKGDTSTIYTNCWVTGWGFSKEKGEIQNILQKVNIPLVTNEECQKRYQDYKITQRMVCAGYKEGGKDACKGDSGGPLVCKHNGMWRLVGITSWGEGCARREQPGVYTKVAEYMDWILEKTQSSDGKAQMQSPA
Sequence of Plasminogen (P00747 97-580 limits assumed): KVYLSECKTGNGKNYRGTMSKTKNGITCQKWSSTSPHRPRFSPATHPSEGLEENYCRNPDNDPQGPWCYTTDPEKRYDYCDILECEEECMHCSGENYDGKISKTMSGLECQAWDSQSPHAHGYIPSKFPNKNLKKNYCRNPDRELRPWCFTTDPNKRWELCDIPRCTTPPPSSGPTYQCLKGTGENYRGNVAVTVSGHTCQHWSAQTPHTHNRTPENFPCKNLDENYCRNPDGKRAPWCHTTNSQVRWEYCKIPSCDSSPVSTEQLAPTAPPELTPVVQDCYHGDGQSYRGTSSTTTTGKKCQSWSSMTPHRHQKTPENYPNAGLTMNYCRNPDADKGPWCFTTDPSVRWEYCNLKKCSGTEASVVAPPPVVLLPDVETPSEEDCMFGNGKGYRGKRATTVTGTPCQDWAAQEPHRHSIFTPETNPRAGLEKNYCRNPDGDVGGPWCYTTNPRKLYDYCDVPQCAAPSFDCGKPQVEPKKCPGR
Sequence of Plasminogen (P00747 581-810 limits assumed): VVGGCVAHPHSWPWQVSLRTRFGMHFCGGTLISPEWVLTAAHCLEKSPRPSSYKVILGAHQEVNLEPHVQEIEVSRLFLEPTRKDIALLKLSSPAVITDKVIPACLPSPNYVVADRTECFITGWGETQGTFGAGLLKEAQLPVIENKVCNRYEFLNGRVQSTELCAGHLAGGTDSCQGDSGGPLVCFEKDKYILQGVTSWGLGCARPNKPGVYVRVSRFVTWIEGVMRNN
Sequence of Coagulation factor IX (P00740 47-191 limits assumed): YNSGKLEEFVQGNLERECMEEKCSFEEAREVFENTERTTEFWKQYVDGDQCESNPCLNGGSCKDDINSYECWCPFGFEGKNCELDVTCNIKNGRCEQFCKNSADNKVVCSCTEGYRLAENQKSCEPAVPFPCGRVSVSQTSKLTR
Sequence of Coagulation factor IX (P00740 227-461 limits assumed): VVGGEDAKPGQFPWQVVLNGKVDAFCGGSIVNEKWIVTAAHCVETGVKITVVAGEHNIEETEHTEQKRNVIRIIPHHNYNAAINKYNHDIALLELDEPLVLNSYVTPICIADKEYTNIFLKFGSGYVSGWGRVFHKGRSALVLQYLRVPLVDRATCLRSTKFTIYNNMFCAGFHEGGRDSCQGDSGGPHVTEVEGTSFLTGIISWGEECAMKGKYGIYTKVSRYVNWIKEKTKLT
Sequence of Vitamin K-dependent protein C (P04070 43-197 limits assumed): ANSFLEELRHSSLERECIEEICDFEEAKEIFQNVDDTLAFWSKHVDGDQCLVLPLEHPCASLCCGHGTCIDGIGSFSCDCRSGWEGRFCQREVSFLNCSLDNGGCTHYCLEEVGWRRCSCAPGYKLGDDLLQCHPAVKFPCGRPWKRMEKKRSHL
Sequence of Vitamin K-dependent protein C (P04070 212-461 limits assumed): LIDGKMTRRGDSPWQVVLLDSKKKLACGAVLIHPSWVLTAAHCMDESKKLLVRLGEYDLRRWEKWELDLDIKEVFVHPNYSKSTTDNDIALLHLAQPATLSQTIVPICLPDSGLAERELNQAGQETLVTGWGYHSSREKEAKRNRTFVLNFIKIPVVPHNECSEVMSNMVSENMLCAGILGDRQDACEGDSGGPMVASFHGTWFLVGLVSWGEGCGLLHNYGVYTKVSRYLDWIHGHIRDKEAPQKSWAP
Sequence of Coagulation factor X (P00742 41-179 limits assumed): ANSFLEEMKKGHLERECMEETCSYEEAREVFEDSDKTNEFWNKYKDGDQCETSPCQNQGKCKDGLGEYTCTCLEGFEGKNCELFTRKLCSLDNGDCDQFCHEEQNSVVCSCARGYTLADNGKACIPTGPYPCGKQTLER
Sequence of Coagulation factor X (P00742 235-488 limits assumed): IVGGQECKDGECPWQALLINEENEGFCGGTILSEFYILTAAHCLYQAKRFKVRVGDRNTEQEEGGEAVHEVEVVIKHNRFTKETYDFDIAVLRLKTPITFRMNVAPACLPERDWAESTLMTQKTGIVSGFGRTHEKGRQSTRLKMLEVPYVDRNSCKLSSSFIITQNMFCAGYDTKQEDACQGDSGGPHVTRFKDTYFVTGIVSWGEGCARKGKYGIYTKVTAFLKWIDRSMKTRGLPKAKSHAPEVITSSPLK

SMILES: COC(=O)Nc1ccc2c(c1)NC(=O)[C@H](C)CCC[C@H](NC(=O)c1ncn(-c3cccc(Cl)c3F)c1C)c1cc-2ccn1.Cl.Cl
- half-life [1]: 0.8 h
- half-life [2]: 1.22 h
- half-life [3]: 0.917 h
- Papp A→B [4]: < 1.5 ×10⁻⁶ cm/s
- Papp B→A [5]: 36.7 ×10⁻⁶ cm/s
- half-life [6]: 1.13 h
- Ki (Coagulation factor VII): > 13.3 µM
- Ki (Coagulation factor IX): > 27.1 µM
- Ki (Coagulation factor X): > 13.3 µM
- Ki (Coagulation factor XII): 2.53 µM
- Ki (Prothrombin): > 11.5 µM
- Ki (Trypsin): > 10 µM
- Ki (Plasma kallikrein): 0.0063 µM
- Ki [7]: > 21.5 µM
- Ki (Plasminogen): > 15 µM
- Ki [8]: > 15.1 µM
